Data from patent US20260137703A1, “2-AMINO-PYRIDO[2,3-D]PYRIMIDIN-7(8H)-ONE AND 7-AMINO-1-PYRIMIDO[4,5-D]PYRIMIDIN-2(1 H)-ONE DERIVATIVES AS EGFR INHIBITORS FOR THE TREATMENT OF CANCER” (Cancer Research Technology Limited, priority 2022, published 2026).

Tests used:
[1] = target: T1, Phospho-EGFR (Tyr1068) in H1975 cells (Homo sapiens, UniProt P00533, L858R/T790M); assay: HTRF pEGFR/total EGFR in H1975 cells; type: cell-based; settings: ratio pEGFR/total EGFR, compound 3 hours
T1 construct: host or cells: H1975
Procedure, shortened: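 Readout is the phospho-EGFR (Tyr1068) to total EGFR HTRF ratio, expressed relative to 0 μM control. Adhered H1975 cells were exposed to compound for 3 hours at 0.1% DMSO, duplicate wells, then lysed for 30 min at room temperature before two-wavelength fluorescence reading.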

[2] = target: T2, Phospho-EGFR (Tyr1068) in H1975 C797S cells (CRISPR-edited EGFR C797S) (Homo sapiens, UniProt P00533, C797S/L858R/T790M); assay: HTRF pEGFR/total EGFR in H1975 C797S cells; type: cell-based; settings: ratio pEGFR/total EGFR, compound 3 hours
T2 construct: host or cells: H1975 C797S (CRISPR-edited)
Procedure, shortened: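 Readout is the HTRF-measured Tyr1068 phospho-EGFR to total EGFR ratio, normalised to the 0 μM control as percent. Preceding this, CRISPR-edited H1975 C797S cells, plated 24 h earlier, were exposed 3 h to duplicate compound doses in medium with 0.1% DMSO, then lysed on a shaker.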

[3] = target: T3, Phospho-EGFR (Tyr1068) in A431 cells (Homo sapiens, UniProt P00533); assay: HTRF pEGFR/total EGFR in A431 cells with EGF stimulation; type: cell-based; settings: ratio pEGFR/total EGFR, compound 2.5 hours then 100 ng/ml EGF 30 mins
T3 construct: endogenous in cells; host or cells: A431
Procedure, shortened: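 Values are pEGFR(Tyr1068)/total EGFR HTRF ratios (665/620 nm) given as percent of the 0 μM control. Adhered A431 cells (20,000 per well, 24 h) had 2.5 h compound pretreatment in 0.1% DMSO, then 30 min of 100 ng/ml EGF before lysis.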

[4] = target: CtermHisTag-mEGFR Wild type (Homo sapiens, UniProt P00533); assay: biochemical
Sequence of CtermHisTag-mEGFR Wild type (P00533 whole entry): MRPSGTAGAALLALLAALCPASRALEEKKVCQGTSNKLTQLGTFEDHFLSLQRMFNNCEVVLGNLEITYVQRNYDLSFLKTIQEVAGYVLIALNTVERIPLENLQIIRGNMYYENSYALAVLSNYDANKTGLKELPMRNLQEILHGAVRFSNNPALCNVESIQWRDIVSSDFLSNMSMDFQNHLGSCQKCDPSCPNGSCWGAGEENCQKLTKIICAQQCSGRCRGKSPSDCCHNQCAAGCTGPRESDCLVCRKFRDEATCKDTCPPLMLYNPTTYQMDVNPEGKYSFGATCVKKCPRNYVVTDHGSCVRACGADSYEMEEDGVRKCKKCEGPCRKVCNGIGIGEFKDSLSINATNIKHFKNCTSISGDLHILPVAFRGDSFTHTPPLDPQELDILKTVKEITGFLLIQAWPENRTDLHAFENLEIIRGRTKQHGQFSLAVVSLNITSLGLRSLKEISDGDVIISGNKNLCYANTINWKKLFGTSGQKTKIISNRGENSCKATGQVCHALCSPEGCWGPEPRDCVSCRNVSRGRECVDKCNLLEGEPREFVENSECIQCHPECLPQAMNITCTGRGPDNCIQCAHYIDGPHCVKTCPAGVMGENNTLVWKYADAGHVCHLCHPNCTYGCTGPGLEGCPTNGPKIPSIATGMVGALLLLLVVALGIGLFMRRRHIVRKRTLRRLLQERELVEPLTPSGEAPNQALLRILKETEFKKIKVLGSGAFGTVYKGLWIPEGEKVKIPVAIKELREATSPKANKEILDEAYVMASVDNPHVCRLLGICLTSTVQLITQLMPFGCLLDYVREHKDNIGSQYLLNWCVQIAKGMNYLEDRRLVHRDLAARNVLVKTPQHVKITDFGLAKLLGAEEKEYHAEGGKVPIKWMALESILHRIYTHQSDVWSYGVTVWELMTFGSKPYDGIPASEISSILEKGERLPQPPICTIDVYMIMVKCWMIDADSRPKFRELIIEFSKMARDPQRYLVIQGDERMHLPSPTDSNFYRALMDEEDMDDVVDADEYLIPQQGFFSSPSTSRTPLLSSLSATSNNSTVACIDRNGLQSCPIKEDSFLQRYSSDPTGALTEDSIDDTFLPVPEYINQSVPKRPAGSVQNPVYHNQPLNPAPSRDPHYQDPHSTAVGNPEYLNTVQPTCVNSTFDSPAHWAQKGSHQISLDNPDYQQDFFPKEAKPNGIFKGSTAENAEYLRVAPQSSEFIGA

T2 sequence (P00533 25-1210 T790M/C797S/L858R): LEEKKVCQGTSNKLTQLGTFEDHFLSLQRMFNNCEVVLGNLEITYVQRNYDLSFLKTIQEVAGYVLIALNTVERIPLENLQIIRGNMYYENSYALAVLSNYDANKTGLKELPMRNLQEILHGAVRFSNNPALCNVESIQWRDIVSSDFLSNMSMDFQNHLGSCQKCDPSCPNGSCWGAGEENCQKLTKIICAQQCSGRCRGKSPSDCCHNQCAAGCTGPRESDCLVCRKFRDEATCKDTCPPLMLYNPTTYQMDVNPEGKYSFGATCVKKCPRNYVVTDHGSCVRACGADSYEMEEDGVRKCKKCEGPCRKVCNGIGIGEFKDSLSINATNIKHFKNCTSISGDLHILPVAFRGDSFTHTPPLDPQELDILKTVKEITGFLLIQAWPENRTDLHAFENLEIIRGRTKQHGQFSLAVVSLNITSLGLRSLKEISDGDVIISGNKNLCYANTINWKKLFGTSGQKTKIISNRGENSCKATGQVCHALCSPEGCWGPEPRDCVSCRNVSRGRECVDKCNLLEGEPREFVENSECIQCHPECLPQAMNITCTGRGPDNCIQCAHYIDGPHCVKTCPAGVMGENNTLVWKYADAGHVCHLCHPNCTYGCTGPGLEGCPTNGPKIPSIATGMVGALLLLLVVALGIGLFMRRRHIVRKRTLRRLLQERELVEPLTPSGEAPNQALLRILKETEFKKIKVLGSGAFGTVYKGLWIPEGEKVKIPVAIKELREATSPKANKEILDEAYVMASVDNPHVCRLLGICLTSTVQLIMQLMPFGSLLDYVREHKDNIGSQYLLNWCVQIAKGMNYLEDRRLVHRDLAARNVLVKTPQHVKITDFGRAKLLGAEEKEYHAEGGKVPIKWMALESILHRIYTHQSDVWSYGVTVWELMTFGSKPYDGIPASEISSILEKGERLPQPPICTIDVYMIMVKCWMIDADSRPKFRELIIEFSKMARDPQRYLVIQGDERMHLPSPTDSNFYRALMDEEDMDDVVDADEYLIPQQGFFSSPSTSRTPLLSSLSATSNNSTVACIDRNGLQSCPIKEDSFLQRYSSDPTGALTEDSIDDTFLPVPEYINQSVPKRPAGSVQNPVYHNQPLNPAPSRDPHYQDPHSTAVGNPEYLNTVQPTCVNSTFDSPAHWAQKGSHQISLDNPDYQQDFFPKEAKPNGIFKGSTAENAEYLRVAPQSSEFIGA
T3 sequence (P00533 25-1210): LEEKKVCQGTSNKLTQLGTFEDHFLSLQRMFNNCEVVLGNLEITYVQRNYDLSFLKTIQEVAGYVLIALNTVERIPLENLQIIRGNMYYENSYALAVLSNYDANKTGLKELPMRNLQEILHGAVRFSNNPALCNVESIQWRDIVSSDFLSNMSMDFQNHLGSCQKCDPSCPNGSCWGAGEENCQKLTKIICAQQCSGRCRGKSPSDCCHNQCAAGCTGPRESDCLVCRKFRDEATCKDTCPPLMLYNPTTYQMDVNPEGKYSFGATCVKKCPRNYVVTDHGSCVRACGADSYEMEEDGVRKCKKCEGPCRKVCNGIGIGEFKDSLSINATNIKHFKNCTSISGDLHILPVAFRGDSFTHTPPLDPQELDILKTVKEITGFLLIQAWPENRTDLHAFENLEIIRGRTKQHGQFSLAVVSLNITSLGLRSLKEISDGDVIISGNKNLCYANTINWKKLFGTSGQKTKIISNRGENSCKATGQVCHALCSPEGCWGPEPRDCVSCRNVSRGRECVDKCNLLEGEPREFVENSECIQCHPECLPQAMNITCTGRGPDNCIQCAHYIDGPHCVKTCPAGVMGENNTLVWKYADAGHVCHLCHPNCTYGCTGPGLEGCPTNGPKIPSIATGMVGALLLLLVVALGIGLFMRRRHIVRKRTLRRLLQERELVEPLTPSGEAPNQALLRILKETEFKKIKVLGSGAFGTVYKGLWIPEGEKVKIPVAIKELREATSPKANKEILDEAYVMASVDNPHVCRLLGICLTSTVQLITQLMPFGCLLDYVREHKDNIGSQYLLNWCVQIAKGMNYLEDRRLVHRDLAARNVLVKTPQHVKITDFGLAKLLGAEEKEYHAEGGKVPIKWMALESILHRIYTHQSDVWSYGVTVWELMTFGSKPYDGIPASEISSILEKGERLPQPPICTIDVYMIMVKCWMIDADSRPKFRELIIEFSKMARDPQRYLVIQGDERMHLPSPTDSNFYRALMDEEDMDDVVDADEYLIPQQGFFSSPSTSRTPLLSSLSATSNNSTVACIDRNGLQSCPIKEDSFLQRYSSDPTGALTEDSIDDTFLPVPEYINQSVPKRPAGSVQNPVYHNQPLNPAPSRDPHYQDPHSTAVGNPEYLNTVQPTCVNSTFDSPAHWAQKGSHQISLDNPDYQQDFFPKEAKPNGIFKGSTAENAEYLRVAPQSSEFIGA
T1 sequence (P00533 25-1210 T790M/L858R): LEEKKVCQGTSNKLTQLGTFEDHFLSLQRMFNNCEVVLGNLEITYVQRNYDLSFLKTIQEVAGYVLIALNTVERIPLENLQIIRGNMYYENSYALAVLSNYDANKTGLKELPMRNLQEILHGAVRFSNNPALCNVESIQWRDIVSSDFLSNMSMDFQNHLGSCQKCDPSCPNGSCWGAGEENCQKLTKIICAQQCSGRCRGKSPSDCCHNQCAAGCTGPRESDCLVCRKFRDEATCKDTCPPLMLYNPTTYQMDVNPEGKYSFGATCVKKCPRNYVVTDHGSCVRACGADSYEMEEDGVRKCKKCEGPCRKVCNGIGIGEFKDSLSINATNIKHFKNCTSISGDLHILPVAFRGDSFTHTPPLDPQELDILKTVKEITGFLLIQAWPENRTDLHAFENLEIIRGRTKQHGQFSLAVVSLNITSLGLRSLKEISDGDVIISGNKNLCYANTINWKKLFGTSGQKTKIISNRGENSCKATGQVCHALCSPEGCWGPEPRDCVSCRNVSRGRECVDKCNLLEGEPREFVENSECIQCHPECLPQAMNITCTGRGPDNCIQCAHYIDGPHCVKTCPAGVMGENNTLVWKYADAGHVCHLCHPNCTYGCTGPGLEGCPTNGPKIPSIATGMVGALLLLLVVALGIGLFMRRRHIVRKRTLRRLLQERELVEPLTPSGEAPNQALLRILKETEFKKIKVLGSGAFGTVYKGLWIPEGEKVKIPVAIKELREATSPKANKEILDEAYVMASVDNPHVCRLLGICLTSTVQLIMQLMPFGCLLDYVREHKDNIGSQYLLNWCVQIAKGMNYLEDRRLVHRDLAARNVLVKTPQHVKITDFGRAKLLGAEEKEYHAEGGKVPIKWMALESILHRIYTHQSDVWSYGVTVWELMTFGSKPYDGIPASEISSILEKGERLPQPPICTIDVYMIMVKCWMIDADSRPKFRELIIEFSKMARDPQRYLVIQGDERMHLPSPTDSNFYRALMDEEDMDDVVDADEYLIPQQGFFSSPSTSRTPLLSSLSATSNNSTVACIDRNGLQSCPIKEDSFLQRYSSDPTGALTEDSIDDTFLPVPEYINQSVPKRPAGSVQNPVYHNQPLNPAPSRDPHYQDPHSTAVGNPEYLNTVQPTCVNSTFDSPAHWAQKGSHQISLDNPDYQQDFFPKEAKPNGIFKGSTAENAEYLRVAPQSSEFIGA

IC50 [1] | IC50 [2] | IC50 [3] | IC50 [4] | SMILES
> 3 µM | > 3 µM | > 3 µM | 1 to 10 µM | C#Cc1c(C)c(=O)n(C)c2nc(Nc3ccc(N4CCN(C)CC4)cc3)ncc12 [Example 149, 5-ethynyl-6,8-dimethyl-2-{[4-(4-methylpiperazin-1-yl)phenyl]amino}pyrido[2,3-d]pyrimidin-7-one]
0.5 to 1 µM | 0.5 to 1 µM | 1 to 3 µM | 1 to 10 µM | C#Cc1c(C)c(=O)n(-c2ccccc2)c2nc(Nc3ccc(N4CCN(C)CC4)cc3)ncc12 [Example 151, 5-Ethynyl-6-methyl-2-{[4-(4-methylpiperazin-1-yl)phenyl]amino}-8-phenylpyrido[2,3-d]pyrimidin-7-one]
> 3 µM | > 3 µM | > 3 µM | > 10 µM | C#Cc1c(C)c(=O)n(Cc2cnoc2)c2nc(Nc3ccc(N4CCN(C)CC4)cc3)ncc12 [Example 175, 5-Ethynyl-6-methyl-2-{[4-(4-methylpiperazin-1-yl)phenyl]aminol}-8-(1,2-oxazol-4-ylmethyl)pyrido[2,3-d]pyrimidin-7-one]
1 to 3 µM | 1 to 3 µM | > 3 µM | < 1 µM | C#Cc1c(C)c(=O)n(Cc2cnco2)c2nc(Nc3ccc(N4CCN(C)CC4)cc3)ncc12 [Example 176, 5-Ethynyl-6-methvl-2-{[4-(4-methylpiperazin-1-yl)phenyl]aminol}-8-(1,3-oxazol-5-ylmethyl)pyrido[2,3-d]pyrimidin-7-one]
> 3 µM | > 3 µM | > 3 µM | 1 to 10 µM | C#Cc1c(C)c(=O)n(Cc2ncc[nH]2)c2nc(Nc3ccc(N4CCN(C)CC4)cc3)ncc12 [Example 177, 5-Ethynyl-8-(1H-imidazol-2-ylmethyl)-6-methyl-2-{[4-(4-methylpiperazin-1-yl)phenyl]amino}pyrido[2,3-d]pyrimidin-7-one]
0.5 to 1 µM | 0.5 to 1 µM | > 3 µM | < 1 µM | C#Cc1c(C)c(=O)n(Cc2ccccn2)c2nc(Nc3ccc(N4CCN(C)CC4)cc3)ncc12 [Example 178, 5-Ethynyl-6-methyl-2-{[4-(4-methylpiperazin-1-yl)phenyl]amino}-8-(pyridin-2-ylmethyl)pyrido[2,3-d]pyrimidin-7-one]
1 to 3 µM | 1 to 3 µM | > 3 µM | 1 to 10 µM | C#Cc1c(C)c(=O)n(Cc2ccncc2)c2nc(Nc3ccc(N4CCN(C)CC4)cc3)ncc12 [Example 179, 5-Ethynyl-6-methyl-2-{[4-(4-methylpiperazin-1-yl)phenyl]amino}-8-(pyridin-4-ylmethyl)pyrido[2,3-d]pyrimidin-7-one]
1 to 3 µM | 1 to 3 µM | > 3 µM | 1 to 10 µM | C#Cc1c(C)c(=O)n(Cc2cnn(C)c2)c2nc(Nc3ccc(N4CCN(C)CC4)cc3)ncc12 [Example 180, 5-Ethynyl-6-methyl-2-{[4-(4-methylpiperazin-1-yl)phenyl]aminol}-8-[(1-methylpyrazol-4-yl)methyl]pyrido[2,3-d]pyrimidin-7-one]

Continued, molecule first:

SMILES | IC50 [1] | IC50 [2] | IC50 [3] | IC50 [4]
C#Cc1c(-c2ccncc2Cl)c(=O)n(C)c2nc(Nc3ccc(N(C)CCN(C)C)cc3)ncc12 [Example 139, 6-(3-chloropyridin-4-yl)-2-[(4-{[2-(dimethylamino)ethyl](methyl)amino}phenyl)amino]-5-ethynyl-8-methylpyrido [2,3-d]pyrimidin-7-one] | 1 to 3 µM | 1 to 3 µM | > 3 µM | < 1 µM
C#Cc1c(Nc2ccccc2)c(=O)n(C)c2nc(Nc3ccc(N(C)CCN(C)C)cc3)ncc12 [Example 144, 2-[(4-{[2-(dimethylamino)ethyl](methyl)amino}phenyl)amino]-5-ethynyl-8-methyl-6-(phenylamino)pyrido[2,3-d]pyrimidin-7-one] | 1 to 3 µM | 1 to 3 µM | < 0.5 µM | < 1 µM
C#Cc1c(C2CC2)c(=O)n(C)c2nc(Nc3ccc(N4CCN(C)CC4)cc3)ncc12 [Example 148, 6-cyclopropyl-5-ethynyl-8-methyl-2-{[4-(4-methylpiperazin-1-yl)phenyl]amino}pyrido[2,3-d]pyrimidin-7-one] | > 3 µM | > 3 µM | > 3 µM | > 10 µM
C#Cc1c(-c2cccs2)c(=O)n(C)c2nc(Nc3ccc(N4CCN(C)CC4)cc3)ncc12 [Example 150, 5-ethynyl-8-methyl-2-{[4-(4-methylpiperazin-1-yl)phenyl]amino}-6-(thiophen-2-yl)pyrido[2,3-d]pyrimidin-7-one] | > 3 µM | 1 to 3 µM | > 3 µM | 1 to 10 µM
C=Cc1cc(=O)n(-c2ccc(OC)cc2OC)c2nc(Nc3ccc(N(C)CCN(C)C)cc3)ncc12 [Example 155, 8-(2,4-dimethoxyphenyl)-2-[(4-{[2-(dimethylamino)ethyl](methyl)amino}phenyl)amino]-5-ethenylpyrido[2,3-d]pyrimidin-7-one] | > 3 µM | > 3 µM | > 3 µM | 1 to 10 µM
C=Cc1cc(=O)n(-c2cccc(OC)c2)c2nc(Nc3ccccc3OC)ncc12 [Example 156, 8-(3-Methoxyphenyl)-2-((2-methoxyphenyl)amino)-5-vinylpyrido[2,3-d]pyrimidin-7(8H)-one] | > 3 µM | > 3 µM | > 3 µM | > 10 µM
C=Cc1cc(=O)n(-c2ccc(OC)cc2)c2nc(Nc3ccccc3OC)ncc12 [Example 157, 8-(4-Methoxyphenyl)-2-((2-methoxyphenyl)amino)-5-vinylpyrido[2,3-d]pyrimidin-7(8H)-one] | > 3 µM | > 3 µM | > 3 µM | > 10 µM
C=Cc1c(-c2ccccc2Cl)c(=O)n(C)c2nc(Nc3ccc(N4CCN(C)CC4)cc3OC)ncc12 [Example 170, 6-(2-chlorophenyl)-5-ethenyl-2-{[2-methoxy-4-(4-methylpiperazin-1-yl)phenyl]amino}-8-methylpyrido[2,3-d]pyrimidin-7-one] | > 3 µM | > 3 µM | > 3 µM | > 10 µM
C=Cc1c(-c2ccccc2Cl)c(=O)n(C)c2nc(Nc3ccc(OCCN(C)C)cc3)ncc12 [Example 172, 6-(2-chlorophenyl)-2-({4-[2-(dimethylamino)ethoxy]phenyl}amino)-5-ethenyl-8-methylpyrido[2,3-d]pyrimidin-7-one] | > 3 µM | > 3 µM | > 3 µM | > 10 µM
C#Cc1cc(=O)n(C2CCCC2)c2nc(Nc3cccc(CN4CC(CS(C)(=O)=O)C4)c3)ncc12 [Example 181] | > 3 µM | > 3 µM | > 3 µM | > 10 µM
C#Cc1cc(=O)n(C2CCCC2)c2nc(Nc3cccc(CN4CCC(CS(C)(=O)=O)C4)c3)ncc12 (stereo not shown) [Example 182] | > 3 µM | > 3 µM | > 3 µM | > 10 µM
C#Cc1cc(=O)n(C2CCCC2)c2nc(Nc3cccc(CN4CCC(CS(C)(=O)=O)CC4)c3)ncc12 [Example 183] | > 3 µM | > 3 µM | > 3 µM | > 10 µM
C#Cc1cc(=O)n(C2CCCC2)c2nc(Nc3cccc4c3CN(C)C4)ncc12 [Example 184, 8-Cyclopentyl-5-ethynyl-2-[(2-methvl-1,3-dihydroisoindol-4-yl)amino]pyrido[2,3-d]pyrimidin-7-one] | > 3 µM | > 3 µM | > 3 µM | 1 to 10 µM
C#Cc1cc(=O)n(C2CCCC2)c2nc(Nc3cccc4c3CCN(C)C4)ncc12 [Example 185, 8-Cyclopentyl-5-ethynyl-2-[(2-methyl-3,4-dihydro-1H-isoquinolin-5-yl)amino]pyrido[2,3-d]pyrimidin-7-one] | > 3 µM | > 3 µM | > 3 µM | > 10 µM
C#Cc1cc(=O)n2c3nc(ncc13)Nc1cccc(c1)OCCC2 [Example 186, 1^5-ethynyl-1^7,1^8-dihydro-4-oxa-2-aza-1(2,8)-pyrido[2,3-d]pyrimidina-3(1,3)-benzenacycloheptaphan-1^7-one] | > 3 µM | > 3 µM | > 3 µM | > 10 µM
C#Cc1cc(=O)n2c3nc(ncc13)Nc1cccc(c1)OC/C=C\C2 [Example 187, (Z)-1^5-ethynyl-1^7,1^8-dihydro-4-oxa-2-aza-1(2,8)-pyrido[2,3-d]pyrimidina-3(1,3)-benzenacyclooctaphan-6-en-1^7-one] | < 0.5 µM | 0.5 to 1 µM | > 3 µM | 1 to 10 µM
C#Cc1cc(=O)n2c3nc(ncc13)Nc1ccc(N3CCN(C)CC3)c(c1)OC/C=C\C2 [Example 188, (Z)-1^5-ethynyl-3^4-(4-methylpiperazin-1-yl)-1^7,1^8-dihydro-4-oxa-2-aza-1(2,8)-pyrido[2,3-d]pyrimidina-3(1,3)-benzenacyclooctaphan-6-en-1^7-one] | < 0.5 µM | < 0.5 µM | 0.5 to 1 µM | < 1 µM
